Data on six molecules can be found in PubChem BioAssay (NCI).

Some test systems named below: 786-0 renal; BT-549 breast; CCRF-CEM leukemia; HL-60(TB) leukemia; HOP-92 NSCLC; MALME-3M melanoma; RPMI-8226 leukemia; SNB-19 CNS; TK-10 renal; UACC-62 melanoma.
Common to all, as to experiment: NCI-60 cell line screen, 48 h

Values joined by “and” are separate entries in the source; they are usually repeats but may differ in a detail not shown here. Identical values can stand only once.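 Five compound concentrations were applied to cells in 96-well plates for 48 hours; endpoints were derived by simple linear interpolation of the resulting dose-response curve. The concentration for 50% growth inhibition is given as GI50. TGI marks complete inhibition of growth.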

As for `C[C@@H]1COCCN1c1cc(-c2ccnn2C)c2ccnc(-c3ccn[nH]3)c2n1`, the GI50 with 786-0 renal is 0.0406 µM and 0.079 µM; in the experiment with BT-549 breast, 0.0481 µM and 0.0691 µM; with CCRF-CEM leukemia, 0.0175 µM and 0.03 µM; in the experiment on HL-60(TB) leukemia it was 0.106 µM and 0.194 µM; in the experiment with HOP-92 NSCLC, 0.0815 µM and 0.175 µM; with MALME-3M melanoma, 0.179 µM and 0.273 µM. The GI50 with RPMI-8226 leukemia is 0.177 µM and 0.202 µM; with SNB-19 CNS it was 0.23 µM and 0.31 µM; with TK-10 renal it was 0.0715 µM and 0.313 µM; with UACC-62 melanoma, 0.125 µM and 0.163 µM. Also, the TGI with 786-0 renal was 0.483 µM; with BT-549 breast it was 0.876 µM and 1.76 µM; in the experiment with CCRF-CEM leukemia it was more than 23.7 µM; in the experiment on HL-60(TB) leukemia, 0.66 µM and 3.16 µM; in the experiment with HOP-92 NSCLC, 0.651 µM and 3.08 µM; in the experiment on MALME-3M melanoma it was 1.52 µM and 3.7 µM. Further, the TGI in the experiment on RPMI-8226 leukemia was 3.01 µM and 5.4 µM; in the experiment with SNB-19 CNS, more than 100 µM; with TK-10 renal it was 1.57 µM and 7 µM; in the experiment on UACC-62 melanoma, 0.876 µM and 1.3 µM.
Regarding `Nc1ncccc1-c1nc2ccc(-c3ccccc3)nc2n1-c1ccc(C2(N)CCC2)cc1`, the GI50 in the experiment with 786-0 renal was 0.212 µM; with BT-549 breast it was 0.344 µM; in the experiment with CCRF-CEM leukemia it was 0.437 µM; in the experiment on HL-60(TB) leukemia, 1.83 µM; in the experiment with HOP-92 NSCLC, 0.0644 µM; with MALME-3M melanoma, 0.197 µM. In addition, the GI50 is 1.74 µM with RPMI-8226 leukemia, 1.5 µM with SNB-19 CNS, 0.719 µM in the experiment with TK-10 renal and 1.37 µM in the experiment with UACC-62 melanoma. The TGI in the experiment with 786-0 renal came to 1.6 µM; in the experiment on BT-549 breast, 5.14 µM; in the experiment with CCRF-CEM leukemia, 9.86 µM; in the experiment with HL-60(TB) leukemia, 3.92 µM; with HOP-92 NSCLC, 1.2 µM; in the experiment with MALME-3M melanoma, 1.84 µM. Also, the TGI was 4.78 µM with RPMI-8226 leukemia, 3.67 µM in the experiment with SNB-19 CNS, 8.01 µM in the experiment on TK-10 renal and 2.99 µM in the experiment with UACC-62 melanoma.
With `Nc1n[nH]c(N)c1N=Nc1ccc(O)cc1`, the GI50 was 26.3 µM with 786-0 renal; 14 µM in the experiment on BT-549 breast; 20 µM in the experiment with CCRF-CEM leukemia; 6.44 µM in the experiment with HL-60(TB) leukemia; 18.2 µM with HOP-92 NSCLC; 24.6 µM in the experiment on MALME-3M melanoma. The GI50 is 14.4 µM in the experiment on RPMI-8226 leukemia, 29.8 µM in the experiment on SNB-19 CNS, 25.7 µM in the experiment with TK-10 renal and 11 µM in the experiment with UACC-62 melanoma. In addition, the TGI with 786-0 renal was more than 100 µM; in the experiment on BT-549 breast, 63.5 µM; in the experiment with CCRF-CEM leukemia, 63 µM; with HL-60(TB) leukemia it was 35.4 µM; in the experiment with HOP-92 NSCLC, 67.8 µM; in the experiment on MALME-3M melanoma, 60.3 µM. Also, the TGI was 54.3 µM in the experiment with RPMI-8226 leukemia, more than 100 µM in the experiment with SNB-19 CNS, 70.4 µM in the experiment on TK-10 renal and 36.4 µM with UACC-62 melanoma.
In the case of `O=c1cccc(C#CC#CCCCO)o1`, the GI50 was 5.27 µM with 786-0 renal; 7.95 µM in the experiment on BT-549 breast; 5.73 µM in the experiment with CCRF-CEM leukemia; 2.24 µM in the experiment on HL-60(TB) leukemia; 2.47 µM in the experiment with HOP-92 NSCLC; 0.788 µM with MALME-3M melanoma. In addition, the GI50 in the experiment on SNB-19 CNS is 9.13 µM; with TK-10 renal, 2.97 µM; in the experiment on UACC-62 melanoma, 4.42 µM. Besides, the TGI was 14 µM in the experiment on 786-0 renal; 23.6 µM in the experiment on BT-549 breast; more than 100 µM in the experiment with CCRF-CEM leukemia; 5.39 µM in the experiment on HL-60(TB) leukemia; 6.13 µM in the experiment with HOP-92 NSCLC; 3.78 µM in the experiment on MALME-3M melanoma. Moreover, the TGI with RPMI-8226 leukemia was more than 26.7 µM; with SNB-19 CNS, 39.1 µM; with TK-10 renal it was 9.55 µM; with UACC-62 melanoma, 10.5 µM.
`O=C(O)COc1ccc(C(=O)/C(SS/C(C(=O)c2ccc(OCC(=O)O)c(Cl)c2Cl)=C2\C=C(c3ccc(Br)cc3)SS2)=C2/C=C(c3ccc(Br)cc3)SS2)c(Cl)c1Cl`: the TGI was more than 45.3 µM in the experiment with 786-0 renal; 67.3 µM in the experiment with BT-549 breast; 17 µM with CCRF-CEM leukemia; 4.67 µM in the experiment on HL-60(TB) leukemia; 16 µM with HOP-92 NSCLC; 41.9 µM with MALME-3M melanoma. For the same molecule, the TGI in the experiment with RPMI-8226 leukemia was 18.2 µM; in the experiment with SNB-19 CNS, 33.1 µM; with TK-10 renal, more than 100 µM; in the experiment with UACC-62 melanoma, 19.3 µM.
Turning to `O=C1CSC(c2ccccc2O)N1c1nnc(Cn2ccnc2)o1` (configuration not stated), the GI50 with 786-0 renal is 7.8 µM; in the experiment on BT-549 breast, 6.26 µM; with CCRF-CEM leukemia, 4.37 µM; in the experiment on HL-60(TB) leukemia it was 1.46 µM; with HOP-92 NSCLC, 2.23 µM; in the experiment with MALME-3M melanoma, 4.43 µM. For the same molecule, the GI50 was 3.52 µM in the experiment with RPMI-8226 leukemia, 14.1 µM in the experiment with TK-10 renal and 11.5 µM with UACC-62 melanoma. The TGI in the experiment with 786-0 renal was more than 100 µM; in the experiment with BT-549 breast, 29.2 µM; in the experiment on CCRF-CEM leukemia, 52.9 µM; in the experiment with HL-60(TB) leukemia, more than 100 µM; with HOP-92 NSCLC, 28.9 µM; in the experiment with MALME-3M melanoma, 26.2 µM. Further, the TGI with RPMI-8226 leukemia is 24.4 µM; in the experiment on TK-10 renal it was more than 100 µM; with UACC-62 melanoma, 26 µM.
